One series concerns the target human esRAGE (Homo sapiens, UniProt Q15109). In words: Surface plasmon resonance (BIAcore) of oxytocin binding to immobilised esRAGE. Particulars: SPR BIAcore 2000, immobilised recombinant human esRAGE (~5000 RU), 10 mM HEPES pH 7.4, 0.15 M NaCl, 25 °C; read-out: apparent dissociation constant (KD). Here is the method: Isolated human esRAGE was immobilised to BIAcore CM5 research grade sensor chips with the amine coupling kit to a density of ~5000 response units (RU)[27],[32],[41]. […] The sensor chips were regenerated with 10 mM NaOH and 0.5% SDS (W/V).

Series [1] can be described thus: Oxytocin in CSF of the third ventricle after subcutaneous injection. Format: in vivo, mouse. Particulars: 90 min after sc 30 ng, 0 min = 100, individual animals, listed as OT. Here is the method:
In separate experiments we cannulated the third ventricles of WT and Ager^−/− mice and withdrew CSF for oxytocin measurements.
The CSF samples (5 μl) were thawed and diluted 1:20 in assay buffer. CSF samples were assayed without protein extraction due to the low protein concentration in the CSF. […] The inter-assay and intra-assay coefficients of variation were less than 15%.

Details of series [2]: method as in earlier work. The conditions noted are these: i.n. application of 50 μg oxytocin in female pigs; ref 18 (Rault et al.); cited from earlier work.
A short description of series [3]: Oxytocin in CSF after transient brain ischaemia (BCCAO) or sham operation. Format: in vivo, mouse. The conditions noted are these: individual animals, listed as OT.

Where “and” joins values, the source holds several entries; their conditions need not be identical. Equal entries are not always repeated.

Sequence of human esRAGE (Q15109 23-347 isoform Q15109-3 limits assumed): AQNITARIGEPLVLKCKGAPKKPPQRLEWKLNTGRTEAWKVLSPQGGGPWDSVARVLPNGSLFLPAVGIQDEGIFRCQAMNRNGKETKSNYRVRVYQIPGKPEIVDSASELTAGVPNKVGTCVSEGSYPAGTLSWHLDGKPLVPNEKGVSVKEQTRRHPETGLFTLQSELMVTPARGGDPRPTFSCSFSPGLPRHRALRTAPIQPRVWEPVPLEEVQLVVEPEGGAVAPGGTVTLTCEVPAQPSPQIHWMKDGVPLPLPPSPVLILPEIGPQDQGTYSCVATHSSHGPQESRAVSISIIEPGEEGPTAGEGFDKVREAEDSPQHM

Take `CC[C@H](C)[C@@H]1NC(=O)[C@H](Cc2ccc(O)cc2)NC(=O)[C@@H](N)CSSC[C@@H](C(=O)N2CCC[C@H]2C(=O)N[C@@H](CC(C)C)C(=O)NCC(N)=O)NC(=O)[C@H](CC(N)=O)NC(=O)[C@H](CCC(N)=O)NC1=O` [oxytocin, Oxytocin]: the Kd at human esRAGE was determined as 179 nM. Also, the “OT % in CSF of the 3rd ventricle” value in series [1] (Ager+/+ male mice) was 295% and 138% and 171% and 41% and 195% and 116% and 100% and 188% and 206%; in series [1] (Ager-/- male mice), 137% and 73% and 77% and 133% and 80% and 118% and 115% and 103%. The bioavailability in series [2] is 0.001%. Besides, the “CSF OT” value is 121.746% and 129.498% and 127.909% and 71.8544% and 61.8033% and 79.0857% and 110.296% and 99.9236% and 126.34% in series [3] (Ager-/- BCCAO male mice); 71.8544% and 61.8033% and 67.0976% and 118.777% and 117.319% and 98.6976% in series [3] (Ager-/- Sham male mice); 191.756% and 287.616% and 179.547% and 244.561% and 258.145% in series [3] (WT BCCAO male mice); 155.233% and 188.051% and 122.984% and 133.451% in series [3] (WT Sham male mice, cisterna magna, after exogenous oxytocin).

These data come from article PMC6389896 (Communications Biology, 2019).
